How the values were obtained:
MRC5 cells = test: H2O2 production by P. acnes-stimulated MRC5; format: cell-based, human; conditions: small peptides 2.5 to 20 μM
HaCaT cells = test: H2O2 production by P. acnes-stimulated HaCaT (spectrofluorimetry, H2-DCFDA); format: cell-based, human; conditions: small peptides 2.5 to 20 μM
Method: (§1) For experiences of stimulation with P. acnes, cells were incubated with the P. acnes suspension adjusted at the appropriate concentration, pre-treated for 1 h at 37° C. or not with fibrinogen recombinant peptides Fg1 and Fg2 at the concentrations 0.87, 1.75, 3.5 or 7 μM for the desired period of time at 37° C. in 5% CO2.
(§2) All cells lines (5·10^4 to 10^5 cells/well) were seeded in 96-well plates (Corning Costar, Brumath, France) and treated as previously described. After stimulation, cells were washed three times in PBS and incubated with 100 μl per wells of 5 μM DHE (for determination of O2^●−) or 5 μM H2-DCFDA (for determination of H2O2) for 30 min as described previously and fluorescence intensity was recorded every hour over a period of 5 h. Fluorescence excitation/emission maxima were for DHE: 480/610 nm and for H2-DCFDA: 507/525 nm. At the end of the experiment, the number of adherent cells was evaluated by the crystal violet assay as described below. O2^●−, and H2O2 were assayed by spectrofluorimetry on a Fusion spectrofluorimeter (PackardBell, Paris, France). Levels of ROS were calculated in each sample as follows: reactive oxygen species rate (arbitrary units/min/10^6 cells)=(fluorescence intensity [arbitrary units] at T5h—fluorescence intensity [arbitrary units] at To/300 minutes/number of adherent cells as measured by the crystal violet assay, and were expressed as arbitrary unit (A.U.).
(§3) To assess the efficacy of Fg1 recombinant peptide, the production of O2^∘− and H2O2 by HaCaT cells NHDK, THP-1, MRC5 and HDF stimulated by pretreated P. acnes strains 6919, RON and PIE was measured. The amount of ROS produced was compared to that produced by the stimulated cells with untreated bacteria. Production baseline was obtained by measuring ROS on unstimulated cells. The production of IL-1ß, IL-8, IL-12 and TNF-α was also measured in all conditions cited above. The measurement of the production of ROS is performed by spectrofluorimetry in the presence of specific fluorochromes directly on the monolayer cell. Measurement of cytokine production was performed in parallel on the cell culture supernatant.
(§4) Two sets of experiments were implemented: 1) The cells were stimulated (18 h at 37° C.) by P. acnes strains previously pretreated with Fg1 and Fg2 peptides at the final concentrations ranging from 0.87 to 7 μM for 1 h at 37° C.; and 2) The cells were pretreated first with Fg1 and Fg2 peptides at the final concentrations ranging from 0.87 to 7 μM for 24 h at 37° C. and stimulated (18 h at 37° C.) by P. acnes strains.
(§5) To assess the efficacy of the small Fg1-related peptide, the production of H2O2 by several cell lines (HaCaT, NHDK, THP-1, MRC5 and HDF) stimulated by three P. acnes strains 6919, RON and PIE was measured, in presence or not with the small peptides. The amount of H2O2 produced is compared to that produced by the stimulated cells with untreated bacteria. Production baseline is obtained by measuring H2O2 on unstimulated cells. The measurement of the production of H2O2 is performed by spectrofluorimetry in the presence of specific fluorochromes directly on the monolayer cell.
(§6) Two sets of experiments have been implemented: • I) The cells are stimulated (18 h at 37° C.) by P. acnes strains previously pretreated with Fg1.1, Fg1.2, Fg1.3, Fg1.4, and Fg1.5 small peptides at the final concentrations ranging from 2.5 to 20 μM for 1 h at 37° C.; • II) The cells are pretreated first with the five small peptides at the final concentrations ranging from 2.5 to 20 μM for 24 h at 37° C. and stimulated (18 h at 37° C.) by P. acnes strains.

ThP1 cells = test: H2O2 production by P. acnes-stimulated ThP1; format: cell-based, human; conditions: small peptides 2.5 to 20 μM
Method: as §1, §2, §3, §4, §5, §6

NHDK cells = test: H2O2 production by P. acnes-stimulated NHDK; format: cell-based, human; conditions: cells first pretreated, small peptides 2.5 to 20 μM
Method: as §1, §2, §3, §4, §5, §6

[1] = test system: HaCaT, NHDK, THP-1, MRC5 and HDF; test: H2O2 production by cells stimulated with P. acnes, overall statement for the five cell lines; format: cell-based, human; conditions: pretreatment of P. acnes strains with small peptide 2.5 to 20 μM; five cell lines and three strains tested
Method: FIG. 17: Dose-dependent inhibition of H2O2 production by fibroblast pre-treated by small Fg1-generated peptides and stimulated by P. acnes. MRC5 cell were incubated for 24 h with small peptides Fg1.1 (light gray bar), Fg1.2 (horizontal line bar), Fg1.3 (hatched bar), Fg1.4 (dark gray bar), Fg1.5 (dotted bar) at concentrations ranging from 2.5 to 20 μM. Measurement of hydrogen peroxide production was realized by spectrofluorometry as described in Materials and Methods. Controls experiments were done with unstimulated MRC5 cell (white bar) and MRC5 stimulated with P. acnes (black bar). Data are means±S.D. of three separate experiments. Statistical significance is indicated by * (P<0.05), ** (P<0.01), *** (P<0.001), and **** (P<0.0001), respectively.
as §2, §5, §6
FIG. 17 corresponds to the results obtained with the P. acnes RON strain on the fibroblast MRCS cell line and are representative of the results obtained with all P. acnes and cells lines tested (Table 6).

HDF cells = test: H2O2 production by P. acnes-stimulated HDF; format: cell-based, human; conditions: cells first pretreated, small peptides 2.5 to 20 μM
Method: as §1, §2, §3, §4, §5, §6

[2] = test system: P. acnes surface proteins; test: Binding of biotinylated ECM ligands to immobilized P. acnes surface proteins; parameters: species or system Propionibacterium acnes; conditions: 25 μg/ml of protein immobilized per well; various quantity of biotinylated Fg and Collagen I
Method: FIG. 2: Binding of P. acnes surface protein to purified human fibrinogen. (A) P. acnes surface proteins (0.8 to 50 μg/ml) were immobilized onto a 96-well polystyrene plate and probed with biotinylated fibrinogen (0.1 μg/ml) for 2 h at room temperature. (B) P. acnes surface proteins (25 μg/ml) were immobilized onto a 96-well polystyrene plate and probed with various concentrations of biotinylated fibrinogen ranging from 0.1 to 16 μg/ml for 2 h at room temperature. Bound biotinylated fibrinogen were detected with HRP-streptavidine as described in Materials and Methods.
To characterize the interaction between P. acnes and ligands, we used biotinylated molecules in quantitative and qualitative assays. In a first set of assays, ECM ligands (fibrinogen, collagens I, IV, VI and VIII) were used as labelled proteins with biotin. In a second set of assays, P. acnes surface proteins (total extract and purified Pfg) were biotinylated. For quantitative analysis, unlabeled protein were diluted into 50 mM carbonate-bicarbonate, pH 9.6 buffer to yield a protein concentration ranging from 0.01 to 50 μg/ml, and then immobilized to 96-well polystyrene plates at 4° C. overnight. […] After washing, bound peroxidase was detected using the chromogenic peroxidase substrate ABTS. […] Binding activity was detected by incubating the membranes with 20 ml of PBT containing biotinylated proteins (0.1 μg/ml) for 2 h at room temperature followed by three washes with PBT. Bound biotinylated proteins were detected by incubating the membrane with peroxidase conjugated to streptavidin (0.5 μg/ml in PBT) for 1 h at room temperature. After washing, bound peroxidase activity was detected using 3,3′-diaminobenzidine in the presence of CoCl2 and H2O2 (Harlow and Lane, 1988).
In order to identify P. acnes surface protein recognized by ECM ligands, we used the most commons ECM proteins recognize by skin related bacteria like collagens and fibrinogen. […] To identify surface proteins, P. acnes total heat protein extracts were electrophoretically separated and detected by silver staining (FIG. 1B). […]

[3] = P. acnes 6919, set I, bacteria first pretreated
[4] = P. acnes 6919, set II, cells first pretreated
[5] = P. acnes PIE, set I, bacteria first pretreated
[6] = P. acnes PIE, set II, cells first pretreated
[7] = P. acnes RON, set I, bacteria first pretreated
[8] = P. acnes RON, set II, cells first pretreated

Substance: LLLCVFLVKSQGVNDNEEGFFSARGHRPLD (fragment Fg1.4) [small peptide generated from Fg1, overlapping Fg1.1 and Fg1.2]
- Inhibition of Hydrogen peroxide (H2O2) production (MRC5 cells; [3]): pos
- Inhibition of Hydrogen peroxide (H2O2) production (MRC5 cells; [4]): pos
- Inhibition of Hydrogen peroxide (H2O2) production (MRC5 cells; [5]): pos
- Inhibition of Hydrogen peroxide (H2O2) production (MRC5 cells; [6]): pos
- Inhibition of Hydrogen peroxide (H2O2) production (MRC5 cells; [7]): pos
- Inhibition of Hydrogen peroxide (H2O2) production (HaCaT cells; [3]): pos
- Inhibition of Hydrogen peroxide (H2O2) production (HaCaT cells; [4]): pos
- Inhibition of Hydrogen peroxide (H2O2) production (HaCaT cells; [5]): pos
- Inhibition of Hydrogen peroxide (H2O2) production (HaCaT cells; [6]): pos
- Inhibition of Hydrogen peroxide (H2O2) production (HaCaT cells; [7]): pos
- Inhibition of Hydrogen peroxide (H2O2) production (ThP1 cells; [3]): pos
- Inhibition of Hydrogen peroxide (H2O2) production (ThP1 cells; [4]): pos
- Inhibition of Hydrogen peroxide (H2O2) production (ThP1 cells; [5]): pos
- Inhibition of Hydrogen peroxide (H2O2) production (ThP1 cells; [6]): pos
- Inhibition of Hydrogen peroxide (H2O2) production (ThP1 cells; [7]): pos
- Inhibition of Hydrogen peroxide (H2O2) production (ThP1 cells; [8]): pos
- Inhibition of Hydrogen peroxide (H2O2) production (NHDK cells; P. acnes 6919, set II): pos
- Inhibition of Hydrogen peroxide (H2O2) production (NHDK cells; P. acnes PIE, set II): pos
- Inhibition of Hydrogen peroxide (H2O2) production (NHDK cells; P. acnes RON, set II): pos
- Inhibition of H2O2 production [1]: inhibits the production of H2O2 in a dose-dependent manner
- Inhibition of Hydrogen peroxide (H2O2) production (HDF cells; P. acnes 6919, set II): pos
- Inhibition of Hydrogen peroxide (H2O2) production (HDF cells; P. acnes PIE, set II): pos
- Inhibition of Hydrogen peroxide (H2O2) production (HDF cells; P. acnes RON, set II): pos

Substance: MKRMVSWSFHKLKTMKHLLLLLLCVFLVKSQGVND (fragment Fg1.1) [small peptide generated from Fg1]
- Inhibition of Hydrogen peroxide (H2O2) production (MRC5 cells; [3]): pos
- Inhibition of Hydrogen peroxide (H2O2) production (MRC5 cells; [4]): pos
- Inhibition of Hydrogen peroxide (H2O2) production (MRC5 cells; [5]): pos
- Inhibition of Hydrogen peroxide (H2O2) production (MRC5 cells; [6]): pos
- Inhibition of Hydrogen peroxide (H2O2) production (MRC5 cells; [7]): pos
- Inhibition of Hydrogen peroxide (H2O2) production (HaCaT cells; [3]): pos
- Inhibition of Hydrogen peroxide (H2O2) production (HaCaT cells; [4]): pos
- Inhibition of Hydrogen peroxide (H2O2) production (HaCaT cells; [5]): pos
- Inhibition of Hydrogen peroxide (H2O2) production (HaCaT cells; [6]): pos
- Inhibition of Hydrogen peroxide (H2O2) production (HaCaT cells; [7]): pos
- Inhibition of Hydrogen peroxide (H2O2) production (ThP1 cells; [3]): pos
- Inhibition of Hydrogen peroxide (H2O2) production (ThP1 cells; [4]): pos
- Inhibition of Hydrogen peroxide (H2O2) production (ThP1 cells; [5]): pos
- Inhibition of Hydrogen peroxide (H2O2) production (ThP1 cells; [6]): pos
- Inhibition of Hydrogen peroxide (H2O2) production (ThP1 cells; [7]): pos
- Inhibition of Hydrogen peroxide (H2O2) production (ThP1 cells; [8]): pos
- Inhibition of Hydrogen peroxide (H2O2) production (NHDK cells; P. acnes 6919, set II): pos
- Inhibition of Hydrogen peroxide (H2O2) production (NHDK cells; P. acnes PIE, set II): pos
- Inhibition of Hydrogen peroxide (H2O2) production (NHDK cells; P. acnes RON, set II): pos
- Inhibition of H2O2 production [1]: inhibits the production of H2O2 in a dose-dependent manner
- Inhibition of Hydrogen peroxide (H2O2) production (HDF cells; P. acnes 6919, set II): pos
- Inhibition of Hydrogen peroxide (H2O2) production (HDF cells; P. acnes PIE, set II): pos
- Inhibition of Hydrogen peroxide (H2O2) production (HDF cells; P. acnes RON, set II): pos

Substance: collagen I: commercial ECM ligand, biotinylated, tested for binding to P. acnes surface proteins [reference compound]
- Binding activity of biotinylated ligand to immobilized P. acnes total surface protein [2]: No binding activity

Source: patent US10323078B2, “Isolated peptides and fragments thereof from fibrinogen for use as drugs, particularly in skin inflammatory diseases” (Universite Paris Descartes, priority 2015, dated 2019)
